One series addresses T1, Chk1 (Homo sapiens, UniProt O14757).
T1 sequence (O14757 1-476): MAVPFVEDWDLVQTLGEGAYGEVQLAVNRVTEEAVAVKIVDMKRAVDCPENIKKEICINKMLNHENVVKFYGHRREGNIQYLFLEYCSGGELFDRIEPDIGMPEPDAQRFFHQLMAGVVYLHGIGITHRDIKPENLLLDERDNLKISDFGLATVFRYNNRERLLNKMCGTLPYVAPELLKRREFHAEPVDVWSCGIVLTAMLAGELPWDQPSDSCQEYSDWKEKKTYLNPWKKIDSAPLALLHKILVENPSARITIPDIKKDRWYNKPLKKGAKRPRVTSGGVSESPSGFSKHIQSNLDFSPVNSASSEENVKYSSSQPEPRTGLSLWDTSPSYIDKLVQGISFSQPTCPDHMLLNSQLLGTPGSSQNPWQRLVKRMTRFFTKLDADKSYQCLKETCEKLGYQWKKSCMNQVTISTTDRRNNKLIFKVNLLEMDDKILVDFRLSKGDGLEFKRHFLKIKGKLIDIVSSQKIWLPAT
As to conditions: read-out: IC50 against primary target (Chk1); cited from earlier work.

For series [1] the following is noted: cited from earlier work.
Another series relates to leukemia cell growth. Kind of series: IC50 (cytotoxicity assay) of RNR inhibitors, Table 1. It counts as cell-based. The method, then: Cells were plated in a 384-well plate (1,000 cells/well for suspension cell lines and 500 cells/well for adherent cell lines in 30 μL). For suspension cell lines, the plate was incubated in 37° C. for 1 h to let the cells settle. For adherent cell lines, the plate was incubated overnight to allow the cells to seed. During incubation, drugs were diluted to desired concentration by serial dilution, vehicle condition was created by adding equivalent amount of DMSO. After incubation, 10 μL of diluted drugs were added to each well, and incubated for 72 h. After incubation, Cell TiterGlo reagent was added to each well according to manufacturer's instructions (Promega, CellTiter-Glo® Luminescent Cell Viability Assay). The plates were shaken for 2 min and incubated in dark for 8 min. Luminescence readings were obtained with luminometer (Molecular devices, SpectraMax).

Another series deals with ATR (Homo sapiens, UniProt Q13535). As to conditions: read-out: IC50 against primary target (ATR); cited from earlier work.
Chain of ATR (Q13535 whole entry): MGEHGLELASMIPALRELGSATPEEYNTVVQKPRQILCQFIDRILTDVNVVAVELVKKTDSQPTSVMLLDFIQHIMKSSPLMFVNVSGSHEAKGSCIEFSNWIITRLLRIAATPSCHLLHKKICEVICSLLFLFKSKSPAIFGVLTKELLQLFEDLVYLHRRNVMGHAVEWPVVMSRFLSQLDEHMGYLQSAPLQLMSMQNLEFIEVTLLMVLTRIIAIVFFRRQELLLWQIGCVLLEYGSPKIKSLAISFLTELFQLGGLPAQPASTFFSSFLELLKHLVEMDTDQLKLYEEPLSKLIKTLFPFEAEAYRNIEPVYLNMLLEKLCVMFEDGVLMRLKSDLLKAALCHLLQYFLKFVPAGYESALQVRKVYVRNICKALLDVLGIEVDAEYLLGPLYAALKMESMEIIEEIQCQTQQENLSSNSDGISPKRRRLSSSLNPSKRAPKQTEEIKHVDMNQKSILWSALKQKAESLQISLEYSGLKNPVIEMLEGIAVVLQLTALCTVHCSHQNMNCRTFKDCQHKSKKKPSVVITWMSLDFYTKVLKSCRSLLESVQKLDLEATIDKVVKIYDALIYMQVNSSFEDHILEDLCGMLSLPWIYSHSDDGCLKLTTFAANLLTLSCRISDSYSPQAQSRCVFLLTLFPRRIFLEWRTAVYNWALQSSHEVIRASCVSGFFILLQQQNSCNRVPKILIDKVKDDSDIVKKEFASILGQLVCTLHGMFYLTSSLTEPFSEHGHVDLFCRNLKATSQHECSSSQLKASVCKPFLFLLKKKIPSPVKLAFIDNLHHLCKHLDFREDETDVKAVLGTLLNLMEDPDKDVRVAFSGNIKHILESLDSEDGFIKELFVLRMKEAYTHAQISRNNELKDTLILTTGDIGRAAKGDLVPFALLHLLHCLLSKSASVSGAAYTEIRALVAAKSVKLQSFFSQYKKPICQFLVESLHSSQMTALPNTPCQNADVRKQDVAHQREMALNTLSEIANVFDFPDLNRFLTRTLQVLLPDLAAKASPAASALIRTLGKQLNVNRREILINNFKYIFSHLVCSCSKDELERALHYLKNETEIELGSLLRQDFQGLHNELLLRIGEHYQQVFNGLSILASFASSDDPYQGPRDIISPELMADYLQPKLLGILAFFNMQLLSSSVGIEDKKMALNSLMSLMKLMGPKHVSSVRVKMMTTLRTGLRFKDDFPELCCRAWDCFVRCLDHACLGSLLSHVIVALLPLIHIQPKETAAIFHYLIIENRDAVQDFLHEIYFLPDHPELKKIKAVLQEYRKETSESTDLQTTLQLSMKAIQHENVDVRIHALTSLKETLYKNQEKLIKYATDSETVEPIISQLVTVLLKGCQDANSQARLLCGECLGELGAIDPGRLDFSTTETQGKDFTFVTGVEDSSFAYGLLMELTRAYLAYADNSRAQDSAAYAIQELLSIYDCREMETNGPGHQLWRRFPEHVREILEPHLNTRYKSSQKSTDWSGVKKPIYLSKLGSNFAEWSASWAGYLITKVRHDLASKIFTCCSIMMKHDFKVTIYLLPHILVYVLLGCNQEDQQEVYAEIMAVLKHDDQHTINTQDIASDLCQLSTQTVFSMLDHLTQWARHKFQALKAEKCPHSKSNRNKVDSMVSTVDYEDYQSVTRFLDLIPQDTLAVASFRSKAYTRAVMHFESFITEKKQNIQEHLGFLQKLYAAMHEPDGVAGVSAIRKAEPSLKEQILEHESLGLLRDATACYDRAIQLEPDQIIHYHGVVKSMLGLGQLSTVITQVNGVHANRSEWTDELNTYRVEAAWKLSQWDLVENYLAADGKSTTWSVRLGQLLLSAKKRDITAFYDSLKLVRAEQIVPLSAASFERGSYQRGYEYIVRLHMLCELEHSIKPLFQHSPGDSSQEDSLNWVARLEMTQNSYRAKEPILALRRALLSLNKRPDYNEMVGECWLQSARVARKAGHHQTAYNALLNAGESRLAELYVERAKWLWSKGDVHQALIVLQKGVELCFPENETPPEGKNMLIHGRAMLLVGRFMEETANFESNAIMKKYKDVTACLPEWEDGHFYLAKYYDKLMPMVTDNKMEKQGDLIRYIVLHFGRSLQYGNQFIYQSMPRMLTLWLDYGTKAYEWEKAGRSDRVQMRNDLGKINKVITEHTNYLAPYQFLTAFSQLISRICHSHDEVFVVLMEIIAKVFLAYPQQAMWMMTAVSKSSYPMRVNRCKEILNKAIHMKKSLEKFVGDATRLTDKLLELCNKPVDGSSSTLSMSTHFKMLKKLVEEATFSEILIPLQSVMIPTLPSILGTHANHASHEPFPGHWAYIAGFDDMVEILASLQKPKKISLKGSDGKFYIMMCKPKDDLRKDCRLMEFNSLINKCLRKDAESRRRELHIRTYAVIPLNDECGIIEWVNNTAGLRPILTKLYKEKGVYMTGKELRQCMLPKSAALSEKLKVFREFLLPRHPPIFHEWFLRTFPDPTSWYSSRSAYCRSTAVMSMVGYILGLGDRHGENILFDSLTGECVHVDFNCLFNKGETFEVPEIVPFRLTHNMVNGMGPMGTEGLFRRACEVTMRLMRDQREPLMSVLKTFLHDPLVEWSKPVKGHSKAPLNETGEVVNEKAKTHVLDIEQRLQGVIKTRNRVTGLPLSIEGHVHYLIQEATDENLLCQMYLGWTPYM
Chain of ATR (Q8WXE1 whole entry partner): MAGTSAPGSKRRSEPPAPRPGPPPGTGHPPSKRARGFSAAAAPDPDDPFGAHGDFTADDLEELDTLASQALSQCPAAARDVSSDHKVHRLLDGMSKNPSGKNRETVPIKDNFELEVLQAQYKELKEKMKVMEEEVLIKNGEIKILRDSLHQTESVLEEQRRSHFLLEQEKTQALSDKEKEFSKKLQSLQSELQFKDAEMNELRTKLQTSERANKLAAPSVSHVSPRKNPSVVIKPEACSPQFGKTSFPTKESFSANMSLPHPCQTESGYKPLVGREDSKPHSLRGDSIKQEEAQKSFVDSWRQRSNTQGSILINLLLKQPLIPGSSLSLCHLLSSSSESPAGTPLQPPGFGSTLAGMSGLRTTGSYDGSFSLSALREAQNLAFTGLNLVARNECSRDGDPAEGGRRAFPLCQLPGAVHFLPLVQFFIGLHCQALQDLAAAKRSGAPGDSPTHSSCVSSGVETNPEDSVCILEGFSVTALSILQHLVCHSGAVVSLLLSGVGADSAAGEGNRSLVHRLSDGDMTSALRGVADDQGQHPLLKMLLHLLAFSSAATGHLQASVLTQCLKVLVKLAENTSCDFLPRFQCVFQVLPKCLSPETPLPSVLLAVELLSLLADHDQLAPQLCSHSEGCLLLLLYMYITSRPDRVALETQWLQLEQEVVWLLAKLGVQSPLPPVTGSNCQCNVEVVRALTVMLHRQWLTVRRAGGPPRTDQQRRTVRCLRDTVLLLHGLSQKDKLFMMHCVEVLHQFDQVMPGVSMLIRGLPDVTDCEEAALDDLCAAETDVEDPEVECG
In series [2] the test system is Jurkat cells. Put plainly: dGTP/DNA-G biosynthesis with [^13C6]glucose and [^15N5]dG labeling. It is filed as cell-based. The method, then:
Another approach to study dGTP/DNA-G biosynthetic pathways is through anticancer therapy Forodesine (BCX-1777). The precursor for DNA-G, dGTP, can be produced from glucose via the de novo pathway and from salvage of extracellular dG either as nucleobase and/or intact nucleoside (FIG. 42A). […] Jurkat cells were labeled for 18 h in the following conditions: untreated, PNP inhibitor (BCX-1777) and DI-82, a specific dCK inhibitor. The labeled media contained […] [U-^13C6]glucose to represent the de novo contribution and 5 μM [^15N5]dG to represent salvage pathways. At the end of the incubation time, [^15N5]dG decreased nearly three orders of magnitude in the culture media from the untreated Jurkat cells, reflecting the high PNP activity in these leukemia cells (FIG. 42B). In contrast, the culture media from BCX-1777 treated cells contained 1.8 μM [^15N5]dG, indicative of reduced dG catabolism.
(§1) Cells were transferred into RPMI-1640 without glucose and supplemented with 10% dialyzed FBS (Gibco) containing any of the following labeled substrates (Cambridge Isotopes): precursors for de novo [U-^13C6]glucose (Sigma-Aldrich) at 11 mM; precursors for purine salvage [U-^13C10,^15N5]dA (Cambridge Isotopes), [^15N5]dA (Cambridge Isotopes), [^15N5]dG (Cambridge Isotopes), [U-^13C5,^15N4]Hx (Cambridge Isotopes) at 5 μM or as indicated in the text; and precursors for pyrimidine salvage: [U-^13C9,^15N3]dC (Silantes) and [U-^13C10,^15N2]dT (Cambridge Isotopes) at 5 μM. The cells were incubated for 18 h or as indicated in the text before samples collection and processing.
(§2) Culture medium was collected 20 μL at the indicated time points. Stock solutions (10 mM) of [U-^13C10,^15N5]dA, and [^15N3]dC (Cambridge Isotope Laboratories) were prepared individually in dimethyl sulfoxide (DMSO), and stored at −20° C. before use as internal standards. The internal standards were diluted to 20 nM in methanol to generate internal standard solution. Calibration standards were prepared by spiking working stock solutions of [U-^13C10,^15N5]dA and [U-^13C9,^15N3]dC blank media to give concentrations in the 10 nM-10 μM range. Each 20 μL calibration standard sample was mixed with 60 μL of internal standard solution, mixed (30 s) and centrifuged (15,000 g, 10 min, 4° C.) and 60 μL of supernatant were transferred into a clean mass spec vial for LC-MS/MS-MRM analysis. Media samples were processed similarly and in parallel to the calibration standard samples.
Cells were collected into microcentrifuge tube and centrifuged (450×g, 4 min, 4° C.). The supernatant was carefully aspirated. The cells were washed twice by the addition of 1 mL of cold PBS and centrifugation (450×g, 4 min 4° C.). PBS washes were aspirated. […]

For a further series, the target named is ATM (Homo sapiens, UniProt Q13315). To be noted: cited from earlier work.
In series [3] the test system is Jurkat cells. Kind of series: Cell cycle histograms (DNA content), 24 h treatment. It counts as cell-based. To be noted: dCF with 5 μM dA. The method, then: Cells were plated at the density of 0.5 million cells per ml per well in respective media/treatment. After 24 h incubation, cells were harvested and washed with PBS twice before staining with 0.5 ml of propidium iodide (Calbiochem, 1 μg/ml) solution containing Ribonuclease A and 0.3% Triton-X 100. The samples were protected from light before acquisition by flow cytometry.

In series [4] the test system is Jurkat cells. Kind of series: dATP/DNA-A biosynthesis with [^13C6]glucose and [^15N5]dA labeling. It is filed as cell-based. The method, then: The precursor for DNA-A, dATP, can be produced from glucose via the de novo pathway and from salvage of extracellular dA either as nucleobase and/or intact nucleoside (FIG. 41A). […] Pharmacological perturbations were used to investigate the contributions of each dA salvage pathway (FIG. 41A). Jurkat cells were labeled for 18 h in the following conditions: untreated, ADA inhibitor Pentostatin (dCF) and DI-82, a specific dCK inhibitor. The labeled media contained […] [U-^13C6]glucose to represent the de novo contribution and 5 μM [^15N5]dA to represent salvage pathways. At the end of the incubation time, [^15N5]dA was undetectable in the culture media from the untreated Jurkat cells, reflecting the high ADA activity in these leukemia cells (FIG. 41B). In contrast, the culture media from dCF treated cells contained 1.5 μM [^15N5]dA, indicative of reduced dA catabolism.
as §1, §2
Cells were collected into microcentrifuge tube and centrifuged (450×g, 4 min, 4° C.). The supernatant was carefully aspirated. The cells were washed twice by the addition of 1 mL of cold PBS and centrifugation (450×g, 4 min 4° C.). PBS washes were aspirated. Thereafter, cells were lysed in 40 μL of 70% methanol/water (v/v), vortexed (30 s) and incubated on ice for 10 min. […]

Series [5] deals with p185^BCR-ABLArf^−/− pre-B cells. Put plainly: dCTP pool and DNA-C measurement with [U-^13C9,^15N3]dC and [U-^13C6]glucose. As to conditions: 3, 6, 9 and 12 h treatment. It counts as cell-based, mouse.
Text: Therefore, p185^BCR-ABLArf^−/− pre-B cells were labeled with [U-^13C9,^15N3]dC and [U-^13C6]glucose to measure the contribution of salvage pathway via dCK and de novo pathway via RNR, respectively.
Series [6] can be described thus: Solubility study in phosphate buffer solution. It counts as physicochemical. To be noted: aqueous buffer.
The next series concerns CEM cells. Kind of series: Mass spectrometric assay of de novo (RNR) and salvage (dCK) contribution to dCTP and DNA-C. It counts as cell-based. As to conditions: G1 released CEM cells.
For the next series, the system named is CCRF-CEM T-ALL cells. Kind of series: EdU pulse assay of cell cycle progression after release from G1 arrest. It is filed as cell-based. To be noted: synchronized CEM cells released from G1. How it is done:
Following release from G1, cells progress to early, mid and late S phase (defined as S1, S2 and S3, respectively) and G2/M. By 18 h following release in drug-free media, 42.5% of cells progressed to S3. […] Thus, dCK represents a resistance mechanism to ATR inhibition.
Cells were treated with a CDK4/6 inhibitor, PD-0332991 (Selleckchem) for 18 h to arrest in G1 phase. Subsequently, cells were washed and released into fresh media containing 10% FBS to monitor the progression of synchronized cells throughout the cell cycle by flow cytometry analysis.
For measuring cell cycle progression of synchronous population of cells, cells were first arrested in G1 phase, then washed and released in treated media. Before collecting and fixing cells at various time points, cells were pulse-labeled with 10 μM EdU for 1 h, and then click-labeled with azide-Alexa Fluor 647 (Invitrogen; Click-iT EdU Flow cytometry kit) according to manufacturer's protocol. Total DNA content was assessed by staining with FxCycle-Violet (Invitrogen) at 1 μg/mL final concentration in PBS containing 2% FBS.

Where only a bound is given, the exact number is not on record here.

Experimental for CEM cells: To analyze the differential utilization of de novo and nucleotide biosynthetic salvage pathways, cultured cells were incubated with stable isotope labeled DNA precursors. […] Extracted dNTP and DNA were analyzed in a triple quadrupole mass spectrometer (QQQ) using multiple reaction monitoring (MRM). The first (Q1) and third (Q3) quadrupoles function as mass filters while the second (Q2) quadrupole serves as a collision chamber. […] In Q2, the glycosidic bond of the selected dC is cleaved, releasing a protonated nucleobase (NB) fragment and a neutral deoxyribose (dR) molecule. The m/z specific NB fragments from dC is separated in Q3 and detected to generate ion chromatograms. […] Each identifier corresponded to a specific biosynthetic pathway and is defined as [x;y], where “x” is the number of heavy isotope-labeled atoms in NB and “y” is the number of heavy isotope atoms in dR. […] According to current biochemical maps of nucleotide metabolism, the [7;5] identifier can only arise from salvaging [U-^13C9,^15N3]dC into newly synthesized DNA. In contrast, a dC with a [0,5] identifier is a product of the de novo pathway. The ratio of the peak areas in the ion chromatograms of salvage [7;5] and de novo [0;5] identifiers describes the relative contributions of the two biosynthetic routes to the dCTP pool used for DNA replication.
Genomic DNA was extracted using the Quick-gDNA MiniPrep kit (Zymo Research, D3021) and hydrolyzed to nucleosides using the DNA Degradase Plus kit (Zymo Research, E2021) following manufacturer-supplied instructions. In the final step of DNA extraction, 50 μL of water was used to elute the DNA. A nuclease premix solution was prepared by mixing 10× buffer, DNA degradase Plus™ and water in the ratio of 2.5/1/1.5 (v/v/v). DNA hydrolysis reaction was prepared in mass spec vials by mixing 5 μL of the nuclease premix solution (5 U of enzyme) and 20 μL of eluted genomic DNA, the total volume becomes 25 μL. The samples were tapped and flicked downward prior to overnight before incubation at 37° C.
Cells were collected into microcentrifuge tube and centrifuged (450×g, 4 min, 4° C.). The supernatant was carefully aspirated. The cells were washed twice by the addition of 1 mL of cold PBS and centrifugation (450×g, 4 min 4° C.). PBS washes were aspirated. Thereafter, cells were lysed in 40 μL of 70% methanol/water (v/v), vortexed (30 s) and incubated on ice for 10 min. Then 40 μL of chloroform (Fisher) was added, vortexed (30 s) and incubated on ice for another 10 min. The samples were then centrifuged at max speed for 10 min at 4° C. Finally, the supernatant was transferred (≈25 μL) into a mass spec vial.
For genomic DNA and media analysis, an aliquot of DNA hydrolysis or media samples (20 μL) was injected directly onto a porous graphitic carbon column (Thermo Fisher Scientific Hypercarb, 100×2.1 mm, 5 μm particle size) equilibrated in solvent A (water/acetonitrile/formic acid, 95/5/0.2, v/v/v) and eluted (200 μL/min) with an increasing concentration of solvent B (acetonitrile/water/formic acid, 90/10/0.2, v/v/v): min/% B/flow rate (μL/min); 0/0/200, 5/0/200, 10/15/200, 20/15/200, 21/40/200, 25/50/200, 26/100/700, 30/100/700, 3I/O/700, 34/0/700, 35/0/200).

`COc1cc(Nc2cnc(C#N)c(O[C@H](C)CN(C)C)n2)ncc1-c1cnn(C)c1` [CCT244747]: the IC50 at Chk1 was 0.029 to 0.17 µM. Further, the “oral bioavailability” value in series [1] is “bioavailable)”.

Turning to `CCN1CCC(Oc2c(C#N)ncc3[nH]c4ncccc4c23)CC1` [GDC0425], the “oral bioavailability” value in series [1] was “orally bioavailable”.

`NC(=O)NO` [Hydroxyurea] came in with an IC50 with leukemia cell growth (3-AP: cell type independent) of 39 µM.

As for `Cn1c(=O)n(-c2ccc(C(C)(C)C#N)cc2)c2c3cc(-c4cnc5ccccc5c4)ccc3ncc21` [NVP-BEZ235], the IC50 on ATR was 0.021 µM.

As for `O=c1[nH]cnc2c([C@@H]3N[C@H](CO)[C@@H](O)[C@H]3O)c[nH]c12` [BCX-1777, Forodesine], the “[^15N5]dG in the culture media at the end of incubation” value in the series on Jurkat cells [2] (18 h, 5 nM BCX-1777, 5 μM [^15N5]dG added) turned out to be 1.8 µM. The “increase in dG salvage into dGTP” value with Jurkat cells [2] (18 h, BCX-1777) is listed as “over 300 fold”. Moreover, the “increase of dGTP pools compared to untreated cells” value with Jurkat cells [2] (18 h, PNP inhibition by BCX-1777) is 6 fold.

Take `C[C@@H]1COCCN1c1cc(C2([S@](C)(=N)=O)CC2)nc(-c2cc[nH]c3nccc2-3)n1` [AZD6738]: the “oral bioavailability” value in [1] is given as “bioavailable)”.

`Cc1cn([C@H]2C[C@H](O)[C@@H](CO)O2)c(=O)[nH]c1=O` [Thymidine] came in with an IC50 with leukemia cell growth (cell type dependent, range printed with two units (μM to mM)) of 50 to 5000 µM.

For the compound `N#Cc1cc2c(cn1)[nH]c1ncc(-c3ccc(CN4CCCCC4)cc3)cc12` [GNE-900], on Chk1, the IC50 is 0.001 µM.

On to `CS(=O)(=O)c1ccc(-c2cnc(N)c(C(=O)Nc3ccccc3)n2)cc1` [VE-821], for which the IC50 on ATM was 34 µM; on ATR it was 0.019 µM.

`Cc1occc(=O)c1[O-].Cc1occc(=O)c1[O-].Cc1occc(=O)c1[O-].[Ga+3]` [Gallium Maltolate]: 30 µM corresponded to half-maximal inhibition in the series with leukemia cell growth (3-AP: cell type independent) (IC50).

Take `N[C@@H]1CCCN(c2c(Br)cnc3[nH]cc(NC(=O)C4CC4)c23)C1` [GDC0575]: the “oral bioavailability” value in series [1] is given as “orally bioavailable”.

For `OC[C@H]1O[C@@H](n2cnc3c2NC=NC[C@H]3O)C[C@@H]1O` [dCF, Pentostatin], in the series with Jurkat cells [3], the “reduction of the proportion of cells in G2/M” value is “more than 2 fold” and the “reduction of the proportion of cells in S-phase” value is on record as 3 fold. Besides, the “[^15N5]dA in the culture media at the end of incubation” value in the series on Jurkat cells [4] (18 h, 10 μM dCF, 5 μM [^15N5]dA added) worked out at 1.5 µM. Further, the “increase of dATP pools compared to untreated cells” value with Jurkat cells [4] (18 h, ADA inhibition by dCF) came out at 6 fold. Also, the “increase in dA salvage into dATP” value in the series with Jurkat cells [4] (18 h, dCF) is “over 190 fold”.

On to `COc1ccc(-c2nc(C(C)Sc3nc(N)cc(N)n3)c(C)s2)cc1OCCNS(C)(=O)=O` (centres unmarked) [DI-82, N-(2-(5-(4-(1-((4,6-diaminopyrimidin-2-yl)thio)ethyl)-5-methylthiazol-2-yl)-2-methoxyphenoxy)ethyl)methanesulfonamide], for which the “dCTP pool” value in [5] is on record as “nearly depleted”. The solubility in series [6] was less than 300 µg/mL. Also, the “contribution of dCK to dCTP and DNA-C” value in the series with CEM cells was “completely abrogates”. In the series with Jurkat cells [4] (1 μM DI-82 added to dCF), the “effect on the increased dATP pool level caused by dCF” value was “completely reversed”. For the same compound, the “effect on the increased dGTP pool level caused by BCX-1777” value with Jurkat cells [2] (1 μM DI-82 added to BCX-1777) is “completely reversed”. The “effect on cell cycle progression” value in the series on CCRF-CEM T-ALL cells is “does not significantly impair cell cycle progression”.
